As a reminder, the Emax is the greatest response seen or fitted, relative to the assay's reference.

From ChEMBL document CHEMBL5579809, “Exploration of bromodomain ligand-linker conjugation sites for efficient CBP/p300 heterobifunctional degrader activity” (Bioorg Med Chem Lett, 2024) come the findings set out here.

The target of one assay is T1, Protein cereblon/Histone acetyltransferase p300 (Homo sapiens) (UniProt Q09472+Q96SW2). Nature of the assay: PROTAC activity at CRBN/HiBiT-tagged p300 in human HAP1 cells assessed as induction of p300 degradation by measuring maximal efficacy at 10 nM measured over 24 hrs by luminescence based analysis relative to control. The format is cell-based. (HiBiT is a short tag that completes a luciferase, so light tracks the accessible tagged protein.)
T1 sequence (Q09472 2-2414 limits assumed): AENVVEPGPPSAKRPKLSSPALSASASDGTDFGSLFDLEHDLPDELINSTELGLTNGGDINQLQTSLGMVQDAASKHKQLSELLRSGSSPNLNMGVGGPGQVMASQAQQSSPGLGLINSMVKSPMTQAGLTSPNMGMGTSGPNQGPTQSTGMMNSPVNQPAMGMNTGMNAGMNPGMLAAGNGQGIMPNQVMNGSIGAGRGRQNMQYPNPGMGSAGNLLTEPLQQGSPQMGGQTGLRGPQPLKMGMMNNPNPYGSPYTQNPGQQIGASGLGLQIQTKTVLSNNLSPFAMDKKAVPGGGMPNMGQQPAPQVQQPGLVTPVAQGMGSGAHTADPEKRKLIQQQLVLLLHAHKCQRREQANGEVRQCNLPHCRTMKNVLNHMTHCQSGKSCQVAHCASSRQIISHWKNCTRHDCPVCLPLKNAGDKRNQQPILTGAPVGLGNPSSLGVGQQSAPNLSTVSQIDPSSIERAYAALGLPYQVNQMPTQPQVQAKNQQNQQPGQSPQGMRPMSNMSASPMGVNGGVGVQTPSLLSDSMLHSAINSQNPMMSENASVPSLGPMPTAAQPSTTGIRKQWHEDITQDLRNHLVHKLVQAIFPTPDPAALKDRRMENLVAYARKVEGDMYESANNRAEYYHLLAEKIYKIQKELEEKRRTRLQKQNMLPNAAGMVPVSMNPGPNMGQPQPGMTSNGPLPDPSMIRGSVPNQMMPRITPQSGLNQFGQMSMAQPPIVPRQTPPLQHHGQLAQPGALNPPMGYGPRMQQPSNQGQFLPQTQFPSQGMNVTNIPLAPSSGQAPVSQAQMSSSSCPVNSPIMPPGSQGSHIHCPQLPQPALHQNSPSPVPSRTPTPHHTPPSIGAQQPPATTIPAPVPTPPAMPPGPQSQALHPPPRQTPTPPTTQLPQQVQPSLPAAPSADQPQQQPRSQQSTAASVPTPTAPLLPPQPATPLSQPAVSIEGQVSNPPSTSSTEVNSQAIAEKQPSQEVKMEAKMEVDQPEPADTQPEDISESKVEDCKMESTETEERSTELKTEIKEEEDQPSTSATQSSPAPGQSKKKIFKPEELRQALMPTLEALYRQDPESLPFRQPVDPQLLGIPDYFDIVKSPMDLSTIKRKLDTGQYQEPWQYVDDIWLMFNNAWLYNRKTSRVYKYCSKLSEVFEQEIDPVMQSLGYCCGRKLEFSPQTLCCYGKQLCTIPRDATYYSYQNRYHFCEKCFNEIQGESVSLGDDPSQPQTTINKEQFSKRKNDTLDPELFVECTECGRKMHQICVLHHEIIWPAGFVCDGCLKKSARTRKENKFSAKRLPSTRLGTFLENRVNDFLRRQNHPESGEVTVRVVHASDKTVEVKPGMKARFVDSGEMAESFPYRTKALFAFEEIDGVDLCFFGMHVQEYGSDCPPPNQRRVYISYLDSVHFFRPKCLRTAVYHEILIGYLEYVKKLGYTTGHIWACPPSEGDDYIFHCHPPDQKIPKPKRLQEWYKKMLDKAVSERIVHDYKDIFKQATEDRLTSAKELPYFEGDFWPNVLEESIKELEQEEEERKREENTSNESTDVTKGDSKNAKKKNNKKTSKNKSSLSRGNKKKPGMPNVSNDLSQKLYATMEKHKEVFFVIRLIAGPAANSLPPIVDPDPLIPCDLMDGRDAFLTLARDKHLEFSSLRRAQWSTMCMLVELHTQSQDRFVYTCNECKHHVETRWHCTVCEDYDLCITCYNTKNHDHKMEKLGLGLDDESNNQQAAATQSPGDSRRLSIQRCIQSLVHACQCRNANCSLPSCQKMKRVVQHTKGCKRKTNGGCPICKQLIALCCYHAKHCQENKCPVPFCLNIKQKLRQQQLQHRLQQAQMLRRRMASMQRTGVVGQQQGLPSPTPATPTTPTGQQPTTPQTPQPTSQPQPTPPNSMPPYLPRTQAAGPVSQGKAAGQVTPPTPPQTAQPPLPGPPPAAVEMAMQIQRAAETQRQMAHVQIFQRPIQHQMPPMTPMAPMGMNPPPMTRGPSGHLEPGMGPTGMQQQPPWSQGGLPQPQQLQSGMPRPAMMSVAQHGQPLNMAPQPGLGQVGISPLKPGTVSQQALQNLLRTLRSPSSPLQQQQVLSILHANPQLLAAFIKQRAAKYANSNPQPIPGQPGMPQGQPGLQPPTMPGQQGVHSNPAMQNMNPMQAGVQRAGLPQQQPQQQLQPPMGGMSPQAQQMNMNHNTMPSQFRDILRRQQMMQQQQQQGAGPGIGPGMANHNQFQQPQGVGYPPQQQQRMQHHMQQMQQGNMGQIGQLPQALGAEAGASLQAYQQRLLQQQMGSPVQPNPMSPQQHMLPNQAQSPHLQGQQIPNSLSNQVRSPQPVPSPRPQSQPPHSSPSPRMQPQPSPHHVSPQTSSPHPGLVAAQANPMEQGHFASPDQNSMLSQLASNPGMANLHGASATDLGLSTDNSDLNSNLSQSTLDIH
T1 sequence (Q96SW2 whole entry partner): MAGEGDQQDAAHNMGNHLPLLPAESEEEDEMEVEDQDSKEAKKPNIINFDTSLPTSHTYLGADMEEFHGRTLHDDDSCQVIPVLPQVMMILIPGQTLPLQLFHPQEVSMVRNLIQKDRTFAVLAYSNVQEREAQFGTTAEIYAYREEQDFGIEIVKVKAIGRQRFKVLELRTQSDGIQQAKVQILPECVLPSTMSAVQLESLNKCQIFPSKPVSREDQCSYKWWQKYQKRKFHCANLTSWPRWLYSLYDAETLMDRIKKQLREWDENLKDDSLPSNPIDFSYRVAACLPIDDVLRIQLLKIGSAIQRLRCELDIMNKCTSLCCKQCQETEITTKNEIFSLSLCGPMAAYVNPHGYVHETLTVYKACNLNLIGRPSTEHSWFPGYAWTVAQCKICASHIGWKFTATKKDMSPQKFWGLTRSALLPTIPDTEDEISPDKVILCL
With `CNC(=O)N1CCc2c(c(N3CCCc4cc(-c5cnn(CC(=O)NCCOCCOCCOCCOCCNc6ccc7c(c6)C(=O)N(C6CCC(=O)NC6=O)C7=O)c5)c(C(F)F)cc43)nn2C2CCOCC2)C1` (stereo not drawn), the Emax turned out to be 61%.

Another assay concerns the target T2, Protein cereblon/CREB-binding protein (Homo sapiens) (UniProt Q92793+Q96SW2). Nature of the assay: PROTAC activity at CRBN/HiBiT-tagged CBP in human HAP1 cells assessed as total cumulative degradation by measuring AUC at 100 nM measured over 24 hrs by luminescence based analysis. The assay is classed as cell-based.
For `CNC(=O)N1CCc2c(c(N3CCCc4cc(-c5cnn(CC(=O)NCCOCCOCCOCCOCCNc6ccc7c(c6)C(=O)N(C6CCC(=O)NC6=O)C7=O)c5)c(C(F)F)cc43)nn2C2CCOCC2)C1` (stereo not drawn), the AUC amounted to 18.

The target of another assay is T2, Protein cereblon/CREB-binding protein (Homo sapiens). Kind of assay: PROTAC activity at CRBN/HiBiT-tagged CBP in human HAP1 cells assessed as total cumulative degradation by measuring AUC at 1 nM measured over 24 hrs by luminescence based analysis. The format is cell-based.
In the case of `CNC(=O)N1CCc2c(c(N3CCCc4cc(-c5cnn(CC(=O)NCCOCCOCCOCCOCCNc6ccc7c(c6)C(=O)N(C6CCC(=O)NC6=O)C7=O)c5)c(C(F)F)cc43)nn2C2CCOCC2)C1` (stereo not drawn), the AUC stood at 23.3.

Another assay shares this target. Kind of assay: PROTAC activity at CRBN/HiBiT-tagged CBP in human HAP1 cells assessed as total cumulative degradation by measuring AUC at 0.01 nM measured over 24 hrs by luminescence based analysis. The format is cell-based.
As for `CNC(=O)N1CCc2c(c(N3CCCc4cc(-c5cnn(CC(=O)NCCOCCOCCOCCOCCNc6ccc7c(c6)C(=O)N(C6CCC(=O)NC6=O)C7=O)c5)c(C(F)F)cc43)nn2C2CCOCC2)C1` (stereo not drawn), the AUC was 22.4.

For a further assay, the target named is T1, Protein cereblon/Histone acetyltransferase p300 (Homo sapiens). Kind of assay: PROTAC activity at CRBN/HiBiT-tagged p300 in human HAP1 cells assessed as total cumulative degradation by measuring AUC at 0.01 nM measured over 24 hrs by luminescence based analysis. The format is cell-based.
As for `CNC(=O)N1CCc2c(c(N3CCCc4cc(-c5cnn(CC(=O)NCCOCCOCCOCCOCCNc6ccc7c(c6)C(=O)N(C6CCC(=O)NC6=O)C7=O)c5)c(C(F)F)cc43)nn2C2CCOCC2)C1` (stereo not drawn), the AUC was 28.

The target is the same in the next assay. Kind of assay: PROTAC activity at CRBN/HiBiT-tagged p300 in human HAP1 cells assessed as induction of p300 degradation by measuring degradation rate at 10 nM measured over 24 hrs by luminescence based analysis. The format is cell-based.
On to `CNC(=O)N1CCc2c(c(N3CCCc4cc(-c5cnn(CC(=O)NCCOCCOCCOCCOCCNc6ccc7c(c6)C(=O)N(C6CCC(=O)NC6=O)C7=O)c5)c(C(F)F)cc43)nn2C2CCOCC2)C1` (stereo not drawn), for which the Activity was found to be 0.03 h⁻¹.

Another assay deals with T2, Protein cereblon/CREB-binding protein (Homo sapiens). Nature of the assay: PROTAC activity at CRBN/HiBiT-tagged CBP in human HAP1 cells assessed as induction of CBP degradation by measuring degradation rate at 10 nM measured over 24 hrs by luminescence based analysis. The format is cell-based.
`CNC(=O)N1CCc2c(c(N3CCCc4cc(-c5cnn(CC(=O)NCCOCCOCCOCCOCCNc6ccc7c(c6)C(=O)N(C6CCC(=O)NC6=O)C7=O)c5)c(C(F)F)cc43)nn2C2CCOCC2)C1` (stereo not drawn): the Activity was 9.7 10^-3/hr.

The next assay has the same target. Kind of assay: PROTAC activity at CRBN/HiBiT-tagged CBP in human HAP1 cells assessed as induction of CBP degradation by measuring maximal efficacy at 10 nM measured over 24 hrs by luminescence based analysis relative to control. The assay is classed as cell-based.
As for `CNC(=O)N1CCc2c(c(N3CCCc4cc(-c5cnn(CC(=O)NCCOCCOCCOCCOCCNc6ccc7c(c6)C(=O)N(C6CCC(=O)NC6=O)C7=O)c5)c(C(F)F)cc43)nn2C2CCOCC2)C1` (stereo not drawn), the maximal response (Emax) worked out at 22%.

The target in another assay is T1, Protein cereblon/Histone acetyltransferase p300 (Homo sapiens). Nature of the assay: PROTAC activity at CRBN/HiBiT-tagged p300 in human HAP1 cells assessed as induction of p300 degradation by measuring maximal efficacy at 1000 nM measured over 24 hrs by luminescence based analysis relative to control. The assay is classed as cell-based.
Turning to `CNC(=O)N1CCc2c(c(N3CCCc4cc(-c5cnn(CC(=O)NCCOCCOCCOCCOCCNc6ccc7c(c6)C(=O)N(C6CCC(=O)NC6=O)C7=O)c5)c(C(F)F)cc43)nn2C2CCOCC2)C1` (stereo not drawn), the maximal effect (Emax) stood at 55%.

The target of another assay is T2, Protein cereblon/CREB-binding protein (Homo sapiens). Kind of assay: PROTAC activity at CRBN/HiBiT-tagged CBP in human HAP1 cells assessed as total cumulative degradation by measuring AUC at 1000 nM measured over 24 hrs by luminescence based analysis. The assay is classed as cell-based.
On to `CNC(=O)N1CCc2c(c(N3CCCc4cc(-c5cnn(CC(=O)NCCOCCOCCOCCOCCNc6ccc7c(c6)C(=O)N(C6CCC(=O)NC6=O)C7=O)c5)c(C(F)F)cc43)nn2C2CCOCC2)C1` (stereo not drawn), for which the AUC is 17.8.

A further assay concerns the target T1, Protein cereblon/Histone acetyltransferase p300 (Homo sapiens). Kind of assay: PROTAC activity at CRBN/HiBiT-tagged p300 in human HAP1 cells assessed as total cumulative degradation by measuring AUC at 100 nM measured over 24 hrs by luminescence based analysis. The assay is classed as cell-based.
Turning to `CNC(=O)N1CCc2c(c(N3CCCc4cc(-c5cnn(CC(=O)NCCOCCOCCOCCOCCNc6ccc7c(c6)C(=O)N(C6CCC(=O)NC6=O)C7=O)c5)c(C(F)F)cc43)nn2C2CCOCC2)C1` (stereo not drawn), the AUC worked out at 16.8.

For another assay the target is unchanged. Kind of assay: PROTAC activity at CRBN/HiBiT-tagged p300 in human HAP1 cells assessed as total cumulative degradation by measuring AUC at 1000 nM measured over 24 hrs by luminescence based analysis. The assay is classed as cell-based.
With `CNC(=O)N1CCc2c(c(N3CCCc4cc(-c5cnn(CC(=O)NCCOCCOCCOCCOCCNc6ccc7c(c6)C(=O)N(C6CCC(=O)NC6=O)C7=O)c5)c(C(F)F)cc43)nn2C2CCOCC2)C1` (stereo not drawn), the AUC was 15.8.

A further assay deals with T2, Protein cereblon/CREB-binding protein (Homo sapiens). Nature of the assay: PROTAC activity at CRBN/HiBiT-tagged CBP in human HAP1 cells assessed as induction of CBP degradation by measuring degradation rate at 1000 nM measured over 24 hrs by luminescence based analysis. The format is cell-based.
With `CNC(=O)N1CCc2c(c(N3CCCc4cc(-c5cnn(CC(=O)NCCOCCOCCOCCOCCNc6ccc7c(c6)C(=O)N(C6CCC(=O)NC6=O)C7=O)c5)c(C(F)F)cc43)nn2C2CCOCC2)C1` (stereo not drawn), the Activity was found to be 0.12 h⁻¹.
